{
  "source": "paper PMC12080252",
  "about": "“Daphnia magna as an Alternative Model for (Simultaneous) Bioaccumulation and Chronic Toxicity Assessment—Controlled Exposure Study Indicates High Hazard of Heterocyclic PAHs” (Environmental Science & Technology, 2025)",
  "key": {"[1]": {"settings": "Table 1; EPA Comptox where available, otherwise EPISuite MPBPVP v1.43 prediction; cited from earlier work"}, "Daphnia magna": {"tested_on": "Daphnia magna", "assay": "Bioaccumulation test (growth, uptake, depuration; adapted from OECD 305) with passive dosing", "type": "in vivo", "settings": "for log BAF*L5%: 5-day uptake, steady-state not reached, normalized to 5% lipid assuming 1.5% lipid in daphnids, eq 8; for effects on growth (wet weight) in bioaccumulation test: BCRB 21.6, BNF 4.5, BNT 4.3, DNF 0.1 μg L^–1, vs controls, p < 0.05; for log BCFL5% (BAF*L5%) / log k2 (growth-dilution corrected, k2g): Table S7, this study; for k2g (growth dilution corrected depuration rate constant): eq 4; for t95 (time to reach 95% steady-state): estimated from k2, eq 6; for k2 (depuration rate constant): slope of ln CD vs time", "description": "(§1) Bioaccumulation tests with D. magna were adapted from OECD guideline 305 (for fish).[27] Each compound was tested using 110 animals: 10 for controls and 100 for chemical exposure. The animals, aged 10 days to limit growth dilution and provide sufficient tissue for analysis, were exposed to a single subtoxic concentration of each chemical. The test included three phases: (i) growth, (ii) uptake, and (iii) depuration. A combined chronic toxicity and bioaccumulation test was also conducted in a minimized version (section 2.6).\n(§2) Ten days before exposure, 110 juvenile daphnids (<24 h old) were collected from the stock culture and grown in M4 medium. Due to the large number of animals required for this test, the volume of media and amount of food provided to the Daphnia were reduced for experimental feasibility. This was achieved by maintaining a denser population (20 mL medium/daphnid), as well as less food (D. subspicatus equivalent to 0.1 mg C/daphnid/day) compared to the stock culture yet still within the limits allowed by OECD 211. Other dietary supplements (fish food and spirulina) and physical conditions (temperature, light/dark cycle) were the same as the stock culture.\n(§3) Before exposure started, 2 L of M4 medium containing D. subspicatus at a density sufficient for 100 daphnids for 5 days (25 mg C L^–1) was dosed with the test substance by shaking with 24 PDMS disks for 72 h. For controls (10 animals), 200 mL of M4 medium containing D. subspicatus ([…]) was equilibrated with 2 disks loaded with pure methanol. Immediately before the start of exposure phase, 10-day old daphnids were transferred to fresh medium for 1 h to clean their guts. Thereafter, 10 control daphnids were placed in 200 mL of pre-equilibrated clean medium with 2 clean PDMS disks, while 100 animals (treatment group) were divided into two beakers, each with 50 animals, 1 L of predosed exposure medium, and 12 loaded disks to begin the 5-day uptake phase.\n(§4) Neonates were discarded daily, and animals were sampled at 24 h intervals over 120 h (5 time points, 2 replicates of 5 animals each). Sampled daphnids were transferred to clean medium for 15 min to remove chemicals present on animal surface, dried with lint-free tissue and weighed to determine wet weight. Finally, 5 animals of known mass were combined in each vial and stored at −20 °C until extraction. As passive dosing maintains constant concentrations,[1] medium samples for analysis (with and without biomass) were only taken at the end of the uptake phase.\n(§5) 50 animals were first transferred to fresh medium for 15 min to remove exposure solution from their surface, and then placed in a new clean medium for the depuration phase. Animals were sampled at 4 time points (2 replicates of 5 animals each as in the uptake phase) over 69 to 96 h. After sampling, the remaining animals were transferred to fresh medium, and the old medium was collected for analysis. Control animals and their medium were analyzed at the end of both the uptake and depuration phases (5 animals each).\n(§6) For quantification of body burdens, 5 daphnids were thawed, homogenized in 5 mL Milli-Q water (IKA T-25 digital Ultra-TURRAX) and extracted twice with 2 mL of hexane. The extracts were combined, dried with Na2SO4, concentrated under a nitrogen stream, and spiked with internal standard.\n(§7) The depuration rate constant (k2) was derived by plotting the natural logarithm of CD against time ([h]), with the slope giving k2 (Figure S3).[27] The growth rate constant (kg) was determined from the slope of the regression line in the plot of ln (D. magna wet weight) versus time, and the growth-corrected depuration rate constant (k2g) was calculated using eq 4. [drawing 4] 4\n(§8) From k2, the optimal uptake and depuration durations to reach 50% and 95% steady-state were estimated using eqs 5 and 6. [drawing 5] 5 [drawing 6] 6\n(§9) The bioaccumulation factor (BAF*) was calculated, even though steady-state was not reached. […]"}, "[2]": {"assay": "Bioaccumulation test (growth, uptake, depuration; adapted from OECD 305) with passive dosing", "type": "in vivo, Daphnia magna", "settings": "whole body (homogenate, wet weight); for concentration at 120 h: Daphnia magna, concentration in animal body at end of uptake phase (t = 120 h), read-out: Body burden", "description": "as §1, §2, §3, §4, §5, §6, §7, §8, §9"}, "[3]": {"assay": "Partitioning between methanolic loading solution and aqueous medium (passive dosing)", "type": "physicochemical", "settings": "methanolic loading solution vs M4 medium at equilibrium via PDMS disk", "description": "Polydimethylsiloxane (PDMS) passive dosing disks, each weighing 2 g with a surface area of 19.6 cm^2, were prepared using SYLGARD 184 silicone elastomer kit and cleaned before use. Details of the procedure are given in Section S3 (SI file). PDMS disks were loaded in methanolic solution or suspension of the test compounds (10 mL solution/disk) with constant shaking for 72 h, wiped with a lint-free tissue, and washed with water for 30 min four times to remove methanol.\nThe time required to reach equilibrium between the PDMS disk and the aqueous medium was determined by conducting 72-h kinetic experiments. Chemicals were dosed into M4 medium in 250 mL Schott bottles (in triplicates) at a ratio of 1 disk/100 mL M4 medium using disks loaded with methanolic solution of a single test substance. For the controls, the disks were loaded with pure methanol. While shaking the bottles at room temperature, five samples were taken at different time points over 72 h and the equilibration time was determined.\nPassive dosing enabled successful quantification of exposure concentrations after centrifugation of algal biomass (CW), closely matching freely dissolved concentrations (Cfree) calculated from partition coefficients between methanol and the medium (KMeOH:medium; see Figure S12 and section S6 for details).\nTable S5 Partition coefficients between the methanolic loading solutions (CMeOH, t=0, nominal concentration\nin methanol at t=0) and the measured equilibrium concentrations of the aqueous medium (Cmedium, eq).\nCompound CMeOH, t=0 Measured KMeOH:medium log log KMeOH:medium Calculated\n[mg L-1] Cmedium, eq KMeOH:medium (mean ± SD) Cmedium, eq\n* The “calculated CMedium, eq” were reported using the average KMeoH:medium and CMeOH, t=0. […]"}, "[4]": {"settings": "Table S7, this study, read-out: half-life (converted)"}, "[5]": {"settings": "t50 (time to reach 50% steady-state / depuration half-life), estimated from k2, eq 5"}},
  "note": "Where “and” joins values, the source holds several entries; their conditions need not be identical. Identical values can stand only once. Like-named read-outs stand apart in the source and are kept apart here.",
  "data": [
    {"compound": "c1ccc2c(c1)ccc1oc3ccc4ccccc4c3c12", "note": "[DNF, dinaphtho[2,1-b:1′,2′-d]furan]", "values": [
      {"measurement": "VP (vapor pressure)", "setting": "[1]", "value": "2.15x10^-8 mm Hg"},
      {"measurement": "log BAF*L5%", "setting": "Daphnia magna", "value": "3.77 L kg^-1 lipid and 3.77±0.08 L kg^-1 lipid"},
      {"measurement": "effects on growth (wet weight) in bioaccumulation test", "setting": "Daphnia magna", "value": "No inhibitory growth effects"},
      {"measurement": "log BCFL5% (BAF*L5%)", "setting": "Daphnia magna", "value": 3.77},
      {"measurement": "log k2 (growth-dilution corrected, k2g)", "setting": "Daphnia magna", "value": -1.98, "unit": "h-1"},
      {"measurement": "k2g (growth dilution corrected depuration rate constant)", "setting": "Daphnia magna", "value": 0.0105, "unit": "h⁻¹"},
      {"measurement": "t95 (time to reach 95% steady-state)", "setting": "Daphnia magna", "value": 232, "unit": "h"},
      {"measurement": "k2 (depuration rate constant)", "setting": "Daphnia magna", "value": 0.0129, "unit": "h⁻¹"},
      {"measurement": "concentration at 120 h", "setting": "[2]", "value": 176, "unit": "ng/g"},
      {"measurement": "half-life", "setting": "[2]; [4]", "value": 53.7, "unit": "h"},
      {"measurement": "half-life", "setting": "[2]; [5]", "value": 54, "unit": "h"},
      {"measurement": "log KMeOH:medium (mean ± SD)", "setting": "[3]", "value": "5.98±0.14"}
    ]},
    {"compound": "c1ccc2c(c1)ccc1oc3ccccc3c12", "note": "[BNF, benzo[b]naphtho[1,2-d]furan]", "values": [
      {"measurement": "VP (vapor pressure)", "setting": "[1]", "value": "3.36x10^-6 mm Hg"},
      {"measurement": "log BAF*L5%", "setting": "Daphnia magna", "value": "3.28±0.31", "unit": "L kg^-1 lipid"},
      {"measurement": "effects on growth (wet weight) in bioaccumulation test", "setting": "Daphnia magna", "value": "statistically significant effects on growth"},
      {"measurement": "log BCFL5% (BAF*L5%)", "setting": "Daphnia magna", "value": 3.28},
      {"measurement": "log k2 (growth-dilution corrected, k2g)", "setting": "Daphnia magna", "value": -1.66, "unit": "h-1"},
      {"measurement": "k2g (growth dilution corrected depuration rate constant)", "setting": "Daphnia magna", "value": 0.022, "unit": "h⁻¹"},
      {"measurement": "t95 (time to reach 95% steady-state)", "setting": "Daphnia magna", "value": 120, "unit": "h"},
      {"measurement": "k2 (depuration rate constant)", "setting": "Daphnia magna", "value": 0.025, "unit": "h⁻¹"},
      {"measurement": "concentration at 120 h", "setting": "[2]", "value": 2580, "unit": "ng/g"},
      {"measurement": "half-life", "setting": "[2]; [4]", "value": 27.7, "unit": "h"},
      {"measurement": "half-life", "setting": "[2]; [5]", "value": 28, "unit": "h"},
      {"measurement": "log KMeOH:medium (mean ± SD)", "setting": "[3]", "value": "5.26±0.06"}
    ]},
    {"compound": "c1ccc2c(c1)ccc1[nH]c3ccccc3c12", "note": "[BCRB, 7H-benzo[c]carbazole]", "values": [
      {"measurement": "VP (vapor pressure)", "setting": "[1]", "value": "4.43x10^-8 mm Hg"},
      {"measurement": "log BAF*L5%", "setting": "Daphnia magna", "value": "3.60±0.09", "unit": "L kg^-1 lipid"},
      {"measurement": "effects on growth (wet weight) in bioaccumulation test", "setting": "Daphnia magna", "value": "statistically significant effects on growth"},
      {"measurement": "log BCFL5% (BAF*L5%)", "setting": "Daphnia magna", "value": 3.6},
      {"measurement": "log k2 (growth-dilution corrected, k2g)", "setting": "Daphnia magna", "value": -0.96, "unit": "h-1"},
      {"measurement": "k2g (growth dilution corrected depuration rate constant)", "setting": "Daphnia magna", "value": 0.109, "unit": "h⁻¹"},
      {"measurement": "t95 (time to reach 95% steady-state)", "setting": "Daphnia magna", "value": 27, "unit": "h"},
      {"measurement": "k2 (depuration rate constant)", "setting": "Daphnia magna", "value": 0.111, "unit": "h⁻¹"},
      {"measurement": "concentration at 120 h", "setting": "[2]", "value": 25600, "unit": "ng/g"},
      {"measurement": "half-life", "setting": "[2]; [4]", "value": 6.23, "unit": "h"},
      {"measurement": "half-life", "setting": "[2]; [5]", "value": 6, "unit": "h"},
      {"measurement": "log KMeOH:medium (mean ± SD)", "setting": "[3]", "value": "4.12±0.06"}
    ]},
    {"compound": "c1ccc2c(c1)ccc1sc3ccccc3c12", "note": "[BNT, benzo[b]naphtho[1,2-d]thiophene]", "values": [
      {"measurement": "VP (vapor pressure)", "setting": "[1]", "value": "8.97x10^-7 mm Hg"},
      {"measurement": "log BAF*L5%", "setting": "Daphnia magna", "value": "4.36 L kg^-1 lipid and 4.36±0.43 L kg^-1 lipid"},
      {"measurement": "effects on growth (wet weight) in bioaccumulation test", "setting": "Daphnia magna", "value": "No inhibitory growth effects"},
      {"measurement": "log BCFL5% (BAF*L5%)", "setting": "Daphnia magna", "value": 4.36},
      {"measurement": "log k2 (growth-dilution corrected, k2g)", "setting": "Daphnia magna", "value": -1.39, "unit": "h-1"},
      {"measurement": "k2g (growth dilution corrected depuration rate constant)", "setting": "Daphnia magna", "value": 0.040, "unit": "h⁻¹"},
      {"measurement": "t95 (time to reach 95% steady-state)", "setting": "Daphnia magna", "value": 71, "unit": "h"},
      {"measurement": "k2 (depuration rate constant)", "setting": "Daphnia magna", "value": 0.042, "unit": "h⁻¹"},
      {"measurement": "concentration at 120 h", "setting": "[2]", "value": 29400, "unit": "ng/g"},
      {"measurement": "half-life", "setting": "[2]; [4]", "value": 16.5, "unit": "h"},
      {"measurement": "half-life", "setting": "[2]; [5]", "value": 17, "unit": "h"},
      {"measurement": "log KMeOH:medium (mean ± SD)", "setting": "[3]", "value": "5.46±0.12"}
    ]}
  ]
}
